Data taken from the Kinase Knowledgebase extract (Sharma et al. 2016).

Molecular target: CDK2 (human) (UniProt P24941)
Experiment: Enzyme Assay

Structure (SMILES) | IC50 [µM]
OCCn1ccc2c(-c3ccnc(Nc4cccc(Cl)c4)n3)cccc21 | < 5
CN(C)C(=O)Cn1ccc2c(-c3ccnc(Nc4cccc(Cl)c4)n3)cccc21 | < 5
CN(C)CCn1ccc2c(-c3ccnc(Nc4cccc(Cl)c4)n3)cccc21 | < 5
COc1cnc(Nc2cccc(S(N)(=O)=O)c2)nc1-c1cccc2[nH]ccc12 | < 5
Cn1ccc2c(-c3ccnc(Nc4cccc(Cl)c4)n3)cccc21 | < 5
OCCCn1ccc2c(-c3ccnc(Nc4cccc(Cl)c4)n3)cccc21 | < 5
Cc1cnc(Nc2cccc(S(N)(=O)=O)c2)nc1-c1cccc2[nH]ccc12 | < 5
O=C(Cn1ccc2c(-c3ccnc(Nc4cccc(Cl)c4)n3)cccc21)NCC1CCCN1 (stereo unspecified) | < 5
CS(=O)(=O)c1cccc(Nc2nccc(-c3cccc4[nH]ccc34)n2)c1 | < 5

The next lines start with the values.

IC50 [µM] | Structure (SMILES)
< 5 | CN(C)CCCn1ccc2c(-c3ccnc(Nc4cccc(Cl)c4)n3)cccc21
< 5 | Cc1ccc2[nH]ccc2c1-c1ccnc(Nc2cccc(S(C)(=O)=O)c2)n1
< 5 | CC(C)(C)NC(=O)Cn1ccc2c(-c3ccnc(Nc4cccc(Cl)c4)n3)cccc21
< 5 | O=C(Cn1ccc2c(-c3ccnc(Nc4cccc(Cl)c4)n3)cccc21)NCCO
< 5 | Cc1cnc(Nc2cccc(S(C)(=O)=O)c2)nc1-c1cccc2[nH]ccc12
< 5 | NS(=O)(=O)c1cccc(Nc2ncc(F)c(-c3cccc4[nH]ccc34)n2)c1
< 5 | CNC(=O)Cn1ccc2c(-c3ccnc(Nc4cccc(Cl)c4)n3)cccc21
